Data reported in article PMC5622171 (Nature Communications, 2017).

What was measured:
Assay in all cases: KINOMEscan kinase profiling
Format in all cases: binding
ACVR1B = molecular target: T1, ACVR1B (Homo sapiens, UniProt P36896); conditions: read-out: %Inhibition by 10 μM SPA70
T1 construct: purchased DiscoverX (Ambit Biosciences) KINOMEscan
Method in brief: (§1)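 KINOMEscan profiling followed a published protocol. Kinases whose inhibition exceeded a set cut-off were then tested in a dilution series beginning at 30 µM.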

ADCK4 = molecular target: T2, ADCK4 (Homo sapiens, UniProt Q96D53); conditions: read-out: %Inhibition by 10 μM SPA70
T2 construct: purchased DiscoverX (Ambit Biosciences) KINOMEscan
Method in brief: as §1

BTK = molecular target: T3, BTK (Homo sapiens, UniProt Q06187)
T3 construct: purchased DiscoverX (Ambit Biosciences) KINOMEscan
Method in brief: as §1

CDK7 = molecular target: T4, CDK7 (Homo sapiens, UniProt P50613); conditions: read-out: %Inhibition by 10 μM SPA70
T4 construct: purchased DiscoverX (Ambit Biosciences) KINOMEscan
Method in brief: as §1

CDK8 = molecular target: T5, CDK8 (Homo sapiens, UniProt P49336)
T5 construct: purchased DiscoverX (Ambit Biosciences) KINOMEscan
Method in brief: as §1

CDKL2 = molecular target: T6, CDKL2 (Homo sapiens, UniProt Q92772); conditions: read-out: %Inhibition by 10 μM SPA70
T6 construct: purchased DiscoverX (Ambit Biosciences) KINOMEscan
T6 sequence (Q92772 whole entry): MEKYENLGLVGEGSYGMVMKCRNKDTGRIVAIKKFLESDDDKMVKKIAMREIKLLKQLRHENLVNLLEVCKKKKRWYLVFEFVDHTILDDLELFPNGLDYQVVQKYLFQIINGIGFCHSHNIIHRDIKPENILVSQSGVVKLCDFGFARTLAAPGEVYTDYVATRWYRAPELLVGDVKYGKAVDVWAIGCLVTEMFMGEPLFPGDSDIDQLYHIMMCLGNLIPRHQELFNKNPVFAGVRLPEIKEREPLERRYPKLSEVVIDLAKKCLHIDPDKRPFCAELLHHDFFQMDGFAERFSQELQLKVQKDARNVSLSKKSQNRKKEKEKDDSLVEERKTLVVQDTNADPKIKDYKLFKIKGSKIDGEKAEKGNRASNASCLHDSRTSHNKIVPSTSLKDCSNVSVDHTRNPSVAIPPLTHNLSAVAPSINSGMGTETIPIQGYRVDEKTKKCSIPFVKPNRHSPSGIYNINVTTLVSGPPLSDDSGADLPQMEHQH
Method in brief: as §1

CIT = molecular target: T7, CIT (Homo sapiens, UniProt O14578)
T7 construct: purchased DiscoverX (Ambit Biosciences) KINOMEscan
Method in brief: as §1

CSNK1D = molecular target: T8, CSNK1D (Homo sapiens, UniProt P48730); conditions: read-out: %Inhibition by 10 μM SPA70
T8 construct: purchased DiscoverX (Ambit Biosciences) KINOMEscan
T8 sequence (P48730 whole entry): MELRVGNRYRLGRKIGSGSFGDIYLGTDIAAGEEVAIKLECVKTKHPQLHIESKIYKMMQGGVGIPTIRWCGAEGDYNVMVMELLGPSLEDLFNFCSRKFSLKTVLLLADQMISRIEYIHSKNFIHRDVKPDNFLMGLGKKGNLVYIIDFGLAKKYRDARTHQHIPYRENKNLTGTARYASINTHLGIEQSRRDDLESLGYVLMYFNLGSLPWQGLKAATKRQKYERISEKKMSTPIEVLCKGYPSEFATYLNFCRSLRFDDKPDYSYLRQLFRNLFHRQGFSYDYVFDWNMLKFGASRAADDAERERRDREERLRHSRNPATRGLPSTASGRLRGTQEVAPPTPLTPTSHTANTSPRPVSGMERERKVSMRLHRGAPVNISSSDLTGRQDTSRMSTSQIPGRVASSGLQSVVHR
Method in brief: as §1

CTK = molecular target: T9, CTK (Homo sapiens, UniProt P42679); conditions: read-out: %Inhibition by 10 μM SPA70
T9 construct: purchased DiscoverX (Ambit Biosciences) KINOMEscan
Method in brief: as §1

DCAMKL1 = molecular target: T10, DCAMKL1 (Homo sapiens, UniProt O15075)
T10 construct: purchased DiscoverX (Ambit Biosciences) KINOMEscan
Method in brief: as §1

EGFR = molecular target: T11, EGFR (Homo sapiens, UniProt P00533)
T11 construct: purchased DiscoverX (Ambit Biosciences) KINOMEscan
Method in brief: as §1

ERK4 = molecular target: T12, ERK4 (Homo sapiens, UniProt P31152); conditions: read-out: %Inhibition by 10 μM SPA70
T12 construct: purchased DiscoverX (Ambit Biosciences) KINOMEscan
Method in brief: as §1

ERK8 = molecular target: T13, ERK8 (Homo sapiens, UniProt Q8TD08); conditions: read-out: %Inhibition by 10 μM SPA70
T13 construct: purchased DiscoverX (Ambit Biosciences) KINOMEscan
T13 sequence (Q8TD08 whole entry): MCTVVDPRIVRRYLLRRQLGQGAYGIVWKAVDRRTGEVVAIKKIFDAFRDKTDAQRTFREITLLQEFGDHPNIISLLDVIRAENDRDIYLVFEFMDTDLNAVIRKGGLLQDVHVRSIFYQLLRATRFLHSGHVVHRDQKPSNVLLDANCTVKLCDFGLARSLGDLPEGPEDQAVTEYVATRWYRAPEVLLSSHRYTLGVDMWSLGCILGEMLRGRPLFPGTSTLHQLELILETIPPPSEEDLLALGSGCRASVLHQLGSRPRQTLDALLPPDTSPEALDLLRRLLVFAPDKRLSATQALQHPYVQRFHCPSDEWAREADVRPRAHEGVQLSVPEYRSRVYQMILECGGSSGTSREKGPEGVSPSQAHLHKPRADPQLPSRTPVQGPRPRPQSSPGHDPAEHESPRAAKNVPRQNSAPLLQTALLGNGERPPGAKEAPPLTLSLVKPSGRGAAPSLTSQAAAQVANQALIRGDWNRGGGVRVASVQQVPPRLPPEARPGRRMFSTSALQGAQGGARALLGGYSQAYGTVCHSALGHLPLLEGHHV
Method in brief: as §1

FLT3 = molecular target: T14, FLT3 (Homo sapiens, UniProt P36888); conditions: read-out: %Inhibition by 10 μM SPA70
T14 construct: purchased DiscoverX (Ambit Biosciences) KINOMEscan
Method in brief: as §1

GRK4 = molecular target: T15, GRK4 (Homo sapiens, UniProt P32298); conditions: read-out: %Inhibition by 10 μM SPA70
T15 construct: purchased DiscoverX (Ambit Biosciences) KINOMEscan
Method in brief: as §1

GSK3A = molecular target: T16, GSK3A (Homo sapiens, UniProt P49840)
T16 construct: purchased DiscoverX (Ambit Biosciences) KINOMEscan
T16 sequence (P49840 whole entry): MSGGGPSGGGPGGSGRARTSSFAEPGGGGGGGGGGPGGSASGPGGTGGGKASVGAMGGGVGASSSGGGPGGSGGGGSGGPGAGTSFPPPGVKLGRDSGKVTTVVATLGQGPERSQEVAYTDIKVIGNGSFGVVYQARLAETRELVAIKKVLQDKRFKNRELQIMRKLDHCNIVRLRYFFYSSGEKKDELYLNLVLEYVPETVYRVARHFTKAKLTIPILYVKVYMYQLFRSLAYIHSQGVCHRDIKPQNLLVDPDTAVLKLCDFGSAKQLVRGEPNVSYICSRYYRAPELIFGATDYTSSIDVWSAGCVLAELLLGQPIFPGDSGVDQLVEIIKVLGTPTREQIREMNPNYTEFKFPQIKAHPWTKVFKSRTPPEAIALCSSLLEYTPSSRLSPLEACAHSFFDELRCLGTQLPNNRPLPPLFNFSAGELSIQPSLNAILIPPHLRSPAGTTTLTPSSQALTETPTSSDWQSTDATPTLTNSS
Method in brief: as §1

HIPK2 = molecular target: T17, HIPK2 (Homo sapiens, UniProt Q9H2X6); conditions: read-out: %Inhibition by 10 μM SPA70
T17 construct: purchased DiscoverX (Ambit Biosciences) KINOMEscan
Method in brief: as §1

HIPK3 = molecular target: T18, HIPK3 (Homo sapiens, UniProt Q9H422); conditions: read-out: %Inhibition by 10 μM SPA70
T18 construct: purchased DiscoverX (Ambit Biosciences) KINOMEscan
T18 sequence (Q9H422 whole entry): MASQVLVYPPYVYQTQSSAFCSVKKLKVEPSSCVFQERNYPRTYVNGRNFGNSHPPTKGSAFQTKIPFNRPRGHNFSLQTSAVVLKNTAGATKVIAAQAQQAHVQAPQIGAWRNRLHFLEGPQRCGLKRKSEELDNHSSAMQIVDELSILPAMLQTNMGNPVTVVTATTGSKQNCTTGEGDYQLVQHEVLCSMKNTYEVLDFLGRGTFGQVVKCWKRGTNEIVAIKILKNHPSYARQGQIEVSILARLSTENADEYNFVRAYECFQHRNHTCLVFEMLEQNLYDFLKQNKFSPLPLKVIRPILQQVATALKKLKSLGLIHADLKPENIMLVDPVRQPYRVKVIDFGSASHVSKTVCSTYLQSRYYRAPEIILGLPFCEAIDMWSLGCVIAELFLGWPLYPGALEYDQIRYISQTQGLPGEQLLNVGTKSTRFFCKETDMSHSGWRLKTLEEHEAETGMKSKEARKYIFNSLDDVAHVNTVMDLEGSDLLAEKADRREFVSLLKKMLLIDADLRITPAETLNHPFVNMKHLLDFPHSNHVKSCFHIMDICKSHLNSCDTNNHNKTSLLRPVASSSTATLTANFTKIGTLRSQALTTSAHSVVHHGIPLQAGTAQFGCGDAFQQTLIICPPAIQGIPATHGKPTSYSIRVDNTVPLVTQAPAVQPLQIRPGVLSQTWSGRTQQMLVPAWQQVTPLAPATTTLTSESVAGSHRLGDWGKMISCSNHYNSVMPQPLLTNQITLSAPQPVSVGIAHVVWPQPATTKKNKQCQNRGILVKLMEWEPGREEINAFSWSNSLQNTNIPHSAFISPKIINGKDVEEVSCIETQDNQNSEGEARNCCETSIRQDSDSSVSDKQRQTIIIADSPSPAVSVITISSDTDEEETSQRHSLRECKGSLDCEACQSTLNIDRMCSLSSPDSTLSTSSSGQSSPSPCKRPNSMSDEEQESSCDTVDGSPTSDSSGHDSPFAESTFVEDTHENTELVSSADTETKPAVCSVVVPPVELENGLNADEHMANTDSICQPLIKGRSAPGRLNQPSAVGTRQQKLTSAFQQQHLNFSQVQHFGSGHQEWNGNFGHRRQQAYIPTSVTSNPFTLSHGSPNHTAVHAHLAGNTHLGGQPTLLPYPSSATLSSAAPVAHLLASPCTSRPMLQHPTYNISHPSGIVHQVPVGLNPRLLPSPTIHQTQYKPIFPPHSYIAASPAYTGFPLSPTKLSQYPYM
Method in brief: as §1

IKK-epsilon = molecular target: T19, IKK-epsilon (Homo sapiens, UniProt Q14164); conditions: read-out: %Inhibition by 10 μM SPA70
T19 construct: purchased DiscoverX (Ambit Biosciences) KINOMEscan
Method in brief: as §1

INSR = molecular target: T20, INSR (Homo sapiens, UniProt P06213); conditions: read-out: %Inhibition by 10 μM SPA70
T20 construct: purchased DiscoverX (Ambit Biosciences) KINOMEscan
Method in brief: as §1

LRRK2 = molecular target: T21, LRRK2 (Homo sapiens, UniProt Q5S007); conditions: read-out: %Inhibition by 10 μM SPA70
T21 construct: purchased DiscoverX (Ambit Biosciences) KINOMEscan
Method in brief: as §1

MAK = molecular target: T22, MAK (Homo sapiens, UniProt P20794); conditions: read-out: %Inhibition by 10 μM SPA70
T22 construct: purchased DiscoverX (Ambit Biosciences) KINOMEscan
Method in brief: as §1

MARK1 = molecular target: T23, MARK1 (Homo sapiens, UniProt Q9P0L2); conditions: read-out: %Inhibition by 10 μM SPA70
T23 construct: purchased DiscoverX (Ambit Biosciences) KINOMEscan
Method in brief: as §1

MET = molecular target: T24, MET (Homo sapiens, UniProt P08581)
T24 construct: purchased DiscoverX (Ambit Biosciences) KINOMEscan
Method in brief: as §1

MKK7 = molecular target: T25, MKK7 (Homo sapiens, UniProt O14733)
T25 construct: purchased DiscoverX (Ambit Biosciences) KINOMEscan
Method in brief: as §1

MLK3 = molecular target: T26, MLK3 (Homo sapiens, UniProt Q16584)
T26 construct: purchased DiscoverX (Ambit Biosciences) KINOMEscan
Method in brief: as §1

MRCKA = molecular target: T27, MRCKA (Homo sapiens, UniProt Q5VT25); conditions: read-out: %Inhibition by 10 μM SPA70
T27 construct: purchased DiscoverX (Ambit Biosciences) KINOMEscan
Method in brief: as §1

MST1R = molecular target: T28, MST1R (Homo sapiens, UniProt Q04912); conditions: read-out: %Inhibition by 10 μM SPA70
T28 construct: purchased DiscoverX (Ambit Biosciences) KINOMEscan
Method in brief: as §1

NEK5 = molecular target: T29, NEK5 (Homo sapiens, UniProt Q6P3R8); conditions: read-out: %Inhibition by 10 μM SPA70
T29 construct: purchased DiscoverX (Ambit Biosciences) KINOMEscan
T29 sequence (Q6P3R8 whole entry): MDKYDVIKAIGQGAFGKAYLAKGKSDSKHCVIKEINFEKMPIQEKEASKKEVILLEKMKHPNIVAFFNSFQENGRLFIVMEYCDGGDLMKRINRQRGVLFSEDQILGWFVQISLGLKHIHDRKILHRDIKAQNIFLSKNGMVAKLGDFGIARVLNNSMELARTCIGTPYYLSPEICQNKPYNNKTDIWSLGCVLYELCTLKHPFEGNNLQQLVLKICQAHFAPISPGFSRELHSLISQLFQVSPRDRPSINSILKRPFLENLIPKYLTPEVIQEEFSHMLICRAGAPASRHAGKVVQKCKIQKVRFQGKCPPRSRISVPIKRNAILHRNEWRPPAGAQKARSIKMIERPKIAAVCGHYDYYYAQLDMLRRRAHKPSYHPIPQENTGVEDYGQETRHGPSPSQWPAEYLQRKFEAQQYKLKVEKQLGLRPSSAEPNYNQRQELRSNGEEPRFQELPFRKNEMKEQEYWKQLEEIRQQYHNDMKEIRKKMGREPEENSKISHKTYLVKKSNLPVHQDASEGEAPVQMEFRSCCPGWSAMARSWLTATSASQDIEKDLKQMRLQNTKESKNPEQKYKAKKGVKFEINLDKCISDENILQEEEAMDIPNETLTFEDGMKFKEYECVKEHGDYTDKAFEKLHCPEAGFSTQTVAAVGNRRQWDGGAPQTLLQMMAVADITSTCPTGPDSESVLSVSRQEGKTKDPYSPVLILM
Method in brief: as §1

PAK3 = molecular target: T30, PAK3 (Homo sapiens, UniProt O75914); conditions: read-out: %Inhibition by 10 μM SPA70
T30 construct: purchased DiscoverX (Ambit Biosciences) KINOMEscan
Method in brief: as §1

PCTK2 = molecular target: T31, PCTK2 (Homo sapiens, UniProt Q00537); conditions: read-out: %Inhibition by 10 μM SPA70
T31 construct: purchased DiscoverX (Ambit Biosciences) KINOMEscan
Method in brief: as §1

PDPK1 = molecular target: T32, PDPK1 (Homo sapiens, UniProt O15530); conditions: read-out: %Inhibition by 10 μM SPA70
T32 construct: purchased DiscoverX (Ambit Biosciences) KINOMEscan
Method in brief: as §1

PIK3CA = molecular target: T33, PIK3CA (Homo sapiens, UniProt P42336); conditions: read-out: %Inhibition by 10 μM SPA70
T33 construct: purchased DiscoverX (Ambit Biosciences) KINOMEscan
Method in brief: as §1

PIK4CB = molecular target: T34, PIK4CB (Homo sapiens, UniProt Q9UBF8); conditions: read-out: %Inhibition by 10 μM SPA70
T34 construct: purchased DiscoverX (Ambit Biosciences) KINOMEscan
Method in brief: as §1

PRKX = molecular target: T35, PRKX (Homo sapiens, UniProt P51817); conditions: read-out: %Inhibition by 10 μM SPA70
T35 construct: purchased DiscoverX (Ambit Biosciences) KINOMEscan
Method in brief: as §1

RET = molecular target: T36, RET (Homo sapiens, UniProt P07949); conditions: read-out: %Inhibition by 10 μM SPA70
T36 construct: purchased DiscoverX (Ambit Biosciences) KINOMEscan
Method in brief: as §1

[1] = molecular target: T37, RPS6KA5(Kin.Dom.1-N-terminal) (Homo sapiens, UniProt O75582); conditions: read-out: %Inhibition by 10 μM SPA70
T37 construct: RPS6KA5(Kin.Dom.1-N-terminal); purchased DiscoverX (Ambit Biosciences) KINOMEscan
Method in brief: as §1

STK33 = molecular target: T38, STK33 (Homo sapiens, UniProt Q9BYT3); conditions: read-out: %Inhibition by 10 μM SPA70
T38 construct: purchased DiscoverX (Ambit Biosciences) KINOMEscan
T38 sequence (Q9BYT3 whole entry): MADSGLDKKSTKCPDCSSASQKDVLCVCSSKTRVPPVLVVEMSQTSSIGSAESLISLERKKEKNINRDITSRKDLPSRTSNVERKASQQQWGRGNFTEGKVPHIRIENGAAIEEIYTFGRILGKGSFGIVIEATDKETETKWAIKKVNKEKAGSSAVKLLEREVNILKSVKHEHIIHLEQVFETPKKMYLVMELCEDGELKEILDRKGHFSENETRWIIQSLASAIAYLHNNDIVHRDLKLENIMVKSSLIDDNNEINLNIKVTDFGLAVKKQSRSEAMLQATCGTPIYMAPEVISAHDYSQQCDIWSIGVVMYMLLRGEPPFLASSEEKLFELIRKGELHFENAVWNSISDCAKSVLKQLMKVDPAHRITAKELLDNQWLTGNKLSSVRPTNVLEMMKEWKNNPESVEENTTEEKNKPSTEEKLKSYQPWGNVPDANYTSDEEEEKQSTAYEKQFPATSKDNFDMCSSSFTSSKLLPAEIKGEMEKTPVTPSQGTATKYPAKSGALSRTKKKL
Method in brief: as §1

TIE2 = molecular target: T39, TIE2 (Homo sapiens, UniProt Q02763); conditions: read-out: %Inhibition by 10 μM SPA70
T39 construct: purchased DiscoverX (Ambit Biosciences) KINOMEscan
Method in brief: as §1

TNK2 = molecular target: T40, TNK2 (Homo sapiens, UniProt Q07912); conditions: read-out: %Inhibition by 10 μM SPA70
T40 construct: purchased DiscoverX (Ambit Biosciences) KINOMEscan
Method in brief: as §1

TRPM6 = molecular target: T41, TRPM6 (Homo sapiens, UniProt Q9BX84); conditions: read-out: %Inhibition by 10 μM SPA70
T41 construct: purchased DiscoverX (Ambit Biosciences) KINOMEscan
Method in brief: as §1

p38-delta = molecular target: T42, p38-delta (Homo sapiens, UniProt O15264); conditions: read-out: %Inhibition by 10 μM SPA70
T42 construct: purchased DiscoverX (Ambit Biosciences) KINOMEscan
Method in brief: as §1

T1 sequence (P36896 24-505): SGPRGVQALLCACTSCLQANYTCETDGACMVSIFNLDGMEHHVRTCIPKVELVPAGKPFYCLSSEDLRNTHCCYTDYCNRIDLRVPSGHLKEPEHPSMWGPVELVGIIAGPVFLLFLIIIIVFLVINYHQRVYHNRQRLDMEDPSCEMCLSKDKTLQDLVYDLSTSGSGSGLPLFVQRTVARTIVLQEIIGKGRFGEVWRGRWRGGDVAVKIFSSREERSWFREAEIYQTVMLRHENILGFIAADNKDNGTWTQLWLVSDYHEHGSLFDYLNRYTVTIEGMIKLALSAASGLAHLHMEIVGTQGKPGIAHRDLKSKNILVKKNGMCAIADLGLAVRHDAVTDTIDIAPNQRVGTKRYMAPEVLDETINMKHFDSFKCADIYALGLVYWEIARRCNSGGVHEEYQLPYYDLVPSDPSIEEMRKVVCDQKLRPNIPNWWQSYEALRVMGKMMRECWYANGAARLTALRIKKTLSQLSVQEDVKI

SMILES: COc1ccc(OC)c(-n2nnc(S(=O)(=O)c3ccc(C(C)(C)C)cc3)c2C)c1 [SPA70]
- inhibition at 10 µM (ACVR1B): 0%
- inhibition at 10 µM (ADCK4): 16%
- %Inhibition by 10 μM SPA70 (BTK): 23%
- inhibition at 10 µM (CDK7): 19%
- %Inhibition by 10 μM SPA70 (CDK8): 2%
- inhibition at 10 µM (CDKL2): 22%
- %Inhibition by 10 μM SPA70 (CIT): 12%
- inhibition at 10 µM (CSNK1D): 3%
- inhibition at 10 µM (CTK): 6%
- %Inhibition by 10 μM SPA70 (DCAMKL1): 0%
- %Inhibition by 10 μM SPA70 (EGFR): 0%
- inhibition at 10 µM (ERK4): 0%
- inhibition at 10 µM (ERK8): 0%
- inhibition at 10 µM (FLT3): 0%
- inhibition at 10 µM (GRK4): 0%
- %Inhibition by 10 μM SPA70 (GSK3A): not inhibited
- inhibition at 10 µM (GSK3A; read-out: %Inhibition by 10 μM SPA70): 0%
- inhibition at 10 µM (HIPK2): 36%
- inhibition at 10 µM (HIPK3): 10%
- inhibition at 10 µM (IKK-epsilon): 0%
- inhibition at 10 µM (INSR): 0%
- inhibition at 10 µM (LRRK2): 0%
- inhibition at 10 µM (MAK): 13%
- inhibition at 10 µM (MARK1): 0%
- %Inhibition by 10 μM SPA70 (MET): 0%
- %Inhibition by 10 μM SPA70 (MKK7): 0%
- %Inhibition by 10 μM SPA70 (MLK3): 18%
- inhibition at 10 µM (MRCKA): 0%
- inhibition at 10 µM (MST1R): 3%
- inhibition at 10 µM (NEK5): 0%
- inhibition at 10 µM (PAK3): 0%
- inhibition at 10 µM (PCTK2): 0%
- inhibition at 10 µM (PDPK1): 0%
- inhibition at 10 µM (PIK3CA): 0%
- inhibition at 10 µM (PIK4CB): 27%
- inhibition at 10 µM (PRKX): 8%
- inhibition at 10 µM (RET): 0%
- inhibition at 10 µM [1]: 14%
- inhibition at 10 µM (STK33): 0%
- inhibition at 10 µM (TIE2): 0%
- inhibition at 10 µM (TNK2): 0%
- inhibition at 10 µM (TRPM6): 31%
- inhibition at 10 µM (p38-delta): 21%
